# Measured values reported in patent publication US20210115071A1, “NANOSCALE METAL-ORGANIC FRAMEWORKS FOR ENHANCED TUMOR CHEMORADIATION” (Oregon State University, priority 2019, published 2021).
# Columns and labels:
# [1] = Drug loading / encapsulation efficiency in Hf-BDC-PEG by HPLC; assay type: physicochemical; details: loaded into Hf-BDC-PEG
# Description: (§1) Talazoparib and buparlisib were loaded into the Hf-BDC-PEG nMOFs by directly adding aliquots of the dissolved drugs (10 mg/mL in DMSO) at the desired concentrations into distilled water (2 mL) with the Hf-BDC-PEG nMOFs (approximately 5.0 mg) and stirred overnight. Unloaded drug(s) were removed by centrifugation and the supernatant was collected and quantified on HPLC to determine the concentration of unloaded talazoparib and buparlisib. A calibration curve for talazoparib and buparlisib was obtained using standard solutions at different concentrations and the curve was fitted with linear regression. Encapsulation efficiency was determined based on the ratio of the amount of drug loaded in Hf-BDC-PEG to the total amount added. The resulting nMOFs were dried under vacuum and stored until use. The influence of pH on drug release of talazoparib and buparlisib from the Hf-BDC-PEG nMOF was investigated using dialysis. TB@Hf-MOF (1.6 mg, 500 μL) was loaded into Slide-A-Lyzer MINI dialysis microtubes with a molecular weight cutoff of 2,000. The loaded samples were dialyzed against 12 mL of buffer (pH 5.5 or 7.4 PBS) with gentle stirring under ambient conditions. At designated time points of 0, 1, 2, 4, 24, 48, 72, 168, and 336 hours, sink samples (6 mL) were collected and replaced with fresh solution. Talazoparib and buparlisib concentrations were determined via HPLC, and drug release profiles were plotted as cumulative % of total drug release vs. time. All drug release measurements were performed in triplicate.
# CT26.wt cells = experiment: Free drug cytotoxicity and combination index; assay type: cell-based, Murine; details: for IC50 decrease in combination vs individual drug: 30:1 TMZ:Tal; for IC50: Mus musculus, CT26.WT, 72 hrs, combination as overall concentration
# Description: Free drug cytotoxicity was investigated with Tal and TMZ as individual and combination agents. To determine the optimal TMZ:Tal ratio, CT26.wt cells were plated at 4×10^3 cells per well in a 96-well plate and allowed to settle overnight. Cells were then treated with TMZ (0, 10, 30, 150, 300, 600 or 1000 μM), Tal (0, 1, 5, 10, or 100 μM), or TMZ:Tal at each of the concentrations combined (ratios ranging from 1000:1 to 1:10) and incubated for 72 hrs. Combination indexes (CIs) were determined for all combinations (including only those points on the curve with Fa values between 0.1 and 0.9) using CompuSyn (ComboSyn Inc., Paramus, N.J., USA).
# [2] = cited from earlier work
# [3] = Drug release from TB@Hf-BDC-PEG by dialysis; assay type: physicochemical; details: 25° C.
# Description: as §1, with “Unloaded” for “Talazoparib and buparlisib were loaded into the Hf-BDC-PEG nMOFs by directly adding aliquots of the dissolved drugs (10 mg/mL in DMSO) at the desired concentrations into distilled water (2 mL) with the Hf-BDC-PEG nMOFs (approximately 5.0 mg) and stirred overnight. Unloaded”
# 4T1 cells = details: free drug, previously reported by the inventors; read-out: individual agent IC50; cited from earlier work
# [4] = Drug loading of Hf-BDC nMOF (encapsulation efficiency); assay type: physicochemical; details: loaded in Hf-BDC nMOF
# Description: nMOFs were suspended in either 18 MΩ water (generation 1) or methanol (generation 2) at 5 mg/mL depending on colloidal stability. nMOF redispersed in water at 5 mg/mL was combined with fucoidan or dextran (both at 1 mg/mL in 18 MΩ water) at a 1:1 v/v ratio, sonicated for 1 hour, and filtered. nMOF redispersed in methanol at 5 mg/mL was combined with fucoidan or dextran (both at 1 mg/mL in 18 MΩ water) at a 1:1 v/v ratio, sonicated for 15 mins and stirred open overnight. After evaporation nMOFs were redispersed to 2.5 mg/mL nMOF in water and subsequently filtered. For drug loading, all steps remained the same except that drug dissolved in DMSO (Tal and/or TMZ or Cyanine 7.5) was added to the nMOF in water or methanol, sonicated for one hour, and washed by centrifuge twice (collecting the supernatant for quantification) before continuing with either surface coating procedure.
Structure (SMILES),Encapsulation efficiency (EE %) [1],IC50 decrease in combination vs individual drug (CT26.wt cells),IC50 (CT26.wt cells),log P [2],"drug released within the first 24 hours ([3]; pH 5.5, PBS)","drug release after two weeks incubation ([3]; pH 7.5, PBS)","drug released within the first 24 hours ([3]; pH 7.5, PBS)",IC50 (4T1 cells),average encapsulation efficiencies (EE) [4]
"C[N+]1=C(C=CC2=CC(=CC=C3N(CCCCCC(=O)O)c4ccc5ccccc5c4C3(C)C)CCC2)C(C)(C)c2c1ccc1ccccc21.[Cl-] [Cy 7.5, cyanine 7.5 carboxylic acid]",approximately 98%,,,,,,,,
"Cn1nnc2c(C(N)=O)ncn2c1=O [TMZ, temozolomide]",,3.3 fold,34 µM,,,,,,
Nc1cc(C(F)(F)F)c(-c2cc(N3CCOCC3)nc(N3CCOCC3)n2)cn1 [buparlisib],14%,,,2.13,~37%,~100%,24%,4.7 µM,
Cn1ncnc1[C@H]1c2n[nH]c(=O)c3cc(F)cc(c23)N[C@@H]1c1ccc(F)cc1 [talazoparib],77%,14.6 fold,5.1 µM,2.93,approximately 21%,approximately 85%,11%,1.4 µM,54%
